{"source": "patent US9232799B2", "about": "“N-[(het)arylethyl)] pyrazole(thio)carboxamides and their heterosubstituted analogues” (BAYER INTELLECTUAL PROPERTY GMBH, priority 2010, dated 2016)", "key": {"[1]": {"system": "Fusarium graminearum", "test": "microbe, parasite or virus in culture", "format": "cell-based", "details": "50 μM"}, "[2]": {"test": "logP by HPLC on reversed-phase column (C 18), EEC Directive 79/831 Annex V.A8", "format": "physicochemical", "description": "In table 1, the logP values were determined in accordance with EEC Directive 79/831 Annex V.A8 by HPLC (High Performance Liquid Chromatography) on a reversed-phase column (C 18), using the method described below: Temperature: 40° C.; […]"}, "[3]": {"system": "Alternaria solani", "test": "In vivo preventive test on Alternaria solani (tomato)", "details": "500 ppm of active ingredient, evaluated 7 days after inoculation", "description": "One day after this treatment, the plants are inoculated with an aqueous spore suspension of Alternaria solani."}, "[4]": {"system": "Pyrenophora teres", "test": "In vivo preventive test on Pyrenophora teres (barley)", "details": "500 ppm of active ingredient, evaluated 7-9 days after inoculation", "description": "One day after this treatment, the plants are inoculated with an aqueous spore suspension of Pyrenophora teres."}, "[5]": {"system": "aflatoxines production", "test": "microbe, parasite or virus in culture", "format": "cell-based, Aspergillus parasiticus", "details": "50 μM"}}}
{"smiles": "Cn1nc(C(F)F)c(C(=O)NCCc2cc(Cl)ccc2Cl)c1F", "note": "[Example 90]", "values": [{"measurement": "% Inhibition of fungal growth at 50 μM", "setting": "[1]", "result": 100, "unit": "%"}, {"measurement": "logP", "setting": "[2]", "result": 3.11}, {"measurement": "Efficacy", "setting": "[3]", "result": 95, "unit": "%"}, {"measurement": "Efficacy", "setting": "[4]", "result": 100, "unit": "%"}, {"measurement": "% Inhibition of Aflatoxin at 50 μM", "setting": "[5]", "result": 100, "unit": "%"}]}
{"smiles": "Cn1nc(C(F)F)c(C(=O)NCCc2cc(Cl)ccc2Cl)c1Cl", "note": "[Example 91]", "values": [{"measurement": "% Inhibition of fungal growth at 50 μM", "setting": "[1]", "result": 100, "unit": "%"}, {"measurement": "logP", "setting": "[2]", "result": 3.29}, {"measurement": "Efficacy", "setting": "[3]", "result": 95, "unit": "%"}, {"measurement": "Efficacy", "setting": "[4]", "result": 100, "unit": "%"}, {"measurement": "% Inhibition of Aflatoxin at 50 μM", "setting": "[5]", "result": 100, "unit": "%"}]}
{"smiles": "CN(CCc1cc(Cl)ccc1Cl)C(=O)c1c(C(F)F)nn(C)c1F", "note": "[Example 94]", "values": [{"measurement": "% Inhibition of fungal growth at 50 μM", "setting": "[1]", "result": 100, "unit": "%"}, {"measurement": "logP", "setting": "[2]", "result": 3.17}, {"measurement": "Efficacy", "setting": "[3]", "result": 100, "unit": "%"}, {"measurement": "Efficacy", "setting": "[4]", "result": 100, "unit": "%"}, {"measurement": "% Inhibition of Aflatoxin at 50 μM", "setting": "[5]", "result": 100, "unit": "%"}]}
{"smiles": "CC(CNC(=O)c1c(C(F)F)nn(C)c1F)c1cc(Cl)ccc1Cl", "note": "(centres unmarked) [Example 97]", "values": [{"measurement": "% Inhibition of fungal growth at 50 μM", "setting": "[1]", "result": 100, "unit": "%"}, {"measurement": "logP", "setting": "[2]", "result": 3.35}, {"measurement": "Efficacy", "setting": "[3]", "result": 95, "unit": "%"}, {"measurement": "Efficacy", "setting": "[4]", "result": 100, "unit": "%"}, {"measurement": "% Inhibition of Aflatoxin at 50 μM", "setting": "[5]", "result": 100, "unit": "%"}]}
{"smiles": "CC(CNC(=O)c1c(C(F)F)nn(C)c1Cl)c1cc(Cl)ccc1Cl", "note": "(centres unmarked) [Example 98]", "values": [{"measurement": "% Inhibition of fungal growth at 50 μM", "setting": "[1]", "result": 95, "unit": "%"}, {"measurement": "logP", "setting": "[2]", "result": 3.55}, {"measurement": "Efficacy", "setting": "[3]", "result": 95, "unit": "%"}, {"measurement": "Efficacy", "setting": "[4]", "result": 94, "unit": "%"}, {"measurement": "% Inhibition of Aflatoxin at 50 μM", "setting": "[5]", "result": 100, "unit": "%"}]}
{"smiles": "Cn1nc(C(F)F)c(C(=O)NCC(C)(C)c2cc(Cl)ccc2Cl)c1F", "note": "[Example 100]", "values": [{"measurement": "% Inhibition of fungal growth at 50 μM", "setting": "[1]", "result": 85, "unit": "%"}, {"measurement": "logP", "setting": "[2]", "result": 3.68}, {"measurement": "Efficacy", "setting": "[3]", "result": 95, "unit": "%"}, {"measurement": "Efficacy", "setting": "[4]", "result": 94, "unit": "%"}, {"measurement": "% Inhibition of Aflatoxin at 50 μM", "setting": "[5]", "result": 99, "unit": "%"}]}
{"smiles": "Cn1nc(C(F)F)c(C(=O)NCCc2cc(Cl)cc(Cl)c2)c1F", "note": "[Example 103]", "values": [{"measurement": "% Inhibition of fungal growth at 50 μM", "setting": "[1]", "result": 99, "unit": "%"}, {"measurement": "logP", "setting": "[2]", "result": 3.25}, {"measurement": "Efficacy", "setting": "[3]", "result": 90, "unit": "%"}, {"measurement": "Efficacy", "setting": "[4]", "result": 100, "unit": "%"}, {"measurement": "% Inhibition of Aflatoxin at 50 μM", "setting": "[5]", "result": 100, "unit": "%"}]}
{"smiles": "Cn1nc(C(F)F)c(C(=O)NCCc2cc(Cl)cc(Cl)c2)c1Cl", "note": "[Example 105]", "values": [{"measurement": "% Inhibition of fungal growth at 50 μM", "setting": "[1]", "result": 95, "unit": "%"}, {"measurement": "logP", "setting": "[2]", "result": 3.42}, {"measurement": "Efficacy", "setting": "[3]", "result": 95, "unit": "%"}, {"measurement": "Efficacy", "setting": "[4]", "result": 94, "unit": "%"}, {"measurement": "% Inhibition of Aflatoxin at 50 μM", "setting": "[5]", "result": 100, "unit": "%"}]}
{"smiles": "CC(CNC(=O)c1c(C(F)F)nn(C)c1F)c1cc(Cl)cc(Cl)c1", "note": "(centres unmarked) [Example 111]", "values": [{"measurement": "% Inhibition of fungal growth at 50 μM", "setting": "[1]", "result": 96, "unit": "%"}, {"measurement": "logP", "setting": "[2]", "result": 3.55}, {"measurement": "Efficacy", "setting": "[3]", "result": 95, "unit": "%"}, {"measurement": "Efficacy", "setting": "[4]", "result": 100, "unit": "%"}, {"measurement": "% Inhibition of Aflatoxin at 50 μM", "setting": "[5]", "result": 100, "unit": "%"}]}
{"smiles": "CC(CNC(=O)c1c(C(F)F)nn(C)c1Cl)c1cc(Cl)cc(Cl)c1", "note": "(centres unmarked) [Example 112]", "values": [{"measurement": "% Inhibition of fungal growth at 50 μM", "setting": "[1]", "result": 83, "unit": "%"}, {"measurement": "logP", "setting": "[2]", "result": 3.73}, {"measurement": "Efficacy", "setting": "[3]", "result": 95, "unit": "%"}, {"measurement": "Efficacy", "setting": "[4]", "result": 100, "unit": "%"}, {"measurement": "% Inhibition of Aflatoxin at 50 μM", "setting": "[5]", "result": 100, "unit": "%"}]}
{"smiles": "Cn1nc(C(F)F)c(C(=O)NCCc2c(Cl)cccc2Cl)c1F", "note": "[Example 117]", "values": [{"measurement": "% Inhibition of fungal growth at 50 μM", "setting": "[1]", "result": 100, "unit": "%"}, {"measurement": "logP", "setting": "[2]", "result": 3.00}, {"measurement": "Efficacy", "setting": "[3]", "result": 95, "unit": "%"}, {"measurement": "Efficacy", "setting": "[4]", "result": 100, "unit": "%"}, {"measurement": "% Inhibition of Aflatoxin at 50 μM", "setting": "[5]", "result": 100, "unit": "%"}]}
{"smiles": "Cn1nc(C(F)F)c(C(=O)NCCc2c(Cl)cccc2Cl)c1Cl", "note": "[Example 118]", "values": [{"measurement": "% Inhibition of fungal growth at 50 μM", "setting": "[1]", "result": 81, "unit": "%"}, {"measurement": "logP", "setting": "[2]", "result": 3.21}, {"measurement": "Efficacy", "setting": "[3]", "result": 90, "unit": "%"}, {"measurement": "Efficacy", "setting": "[4]", "result": 94, "unit": "%"}, {"measurement": "% Inhibition of Aflatoxin at 50 μM", "setting": "[5]", "result": 100, "unit": "%"}]}
{"smiles": "Cn1nc(C(F)F)c(C(=O)NCCc2ccccc2C(F)(F)F)c1F", "note": "[Example 121]", "values": [{"measurement": "% Inhibition of fungal growth at 50 μM", "setting": "[1]", "result": 100, "unit": "%"}, {"measurement": "logP", "setting": "[2]", "result": 2.92}, {"measurement": "Efficacy", "setting": "[3]", "result": 95, "unit": "%"}, {"measurement": "Efficacy", "setting": "[4]", "result": 100, "unit": "%"}, {"measurement": "% Inhibition of Aflatoxin at 50 μM", "setting": "[5]", "result": 100, "unit": "%"}]}
{"smiles": "CN(CCc1ccccc1C(F)(F)F)C(=O)c1c(C(F)F)nn(C)c1F", "note": "[Example 123]", "values": [{"measurement": "% Inhibition of fungal growth at 50 μM", "setting": "[1]", "result": 100, "unit": "%"}, {"measurement": "logP", "setting": "[2]", "result": 3.00}, {"measurement": "Efficacy", "setting": "[3]", "result": 100, "unit": "%"}, {"measurement": "Efficacy", "setting": "[4]", "result": 95, "unit": "%"}, {"measurement": "% Inhibition of Aflatoxin at 50 μM", "setting": "[5]", "result": 100, "unit": "%"}]}
{"smiles": "CN(CCc1ccccc1C(F)(F)F)C(=O)c1c(C(F)F)nn(C)c1Cl", "note": "[Example 124]", "values": [{"measurement": "% Inhibition of fungal growth at 50 μM", "setting": "[1]", "result": 87, "unit": "%"}, {"measurement": "logP", "setting": "[2]", "result": 3.13}, {"measurement": "Efficacy", "setting": "[3]", "result": 100, "unit": "%"}, {"measurement": "Efficacy", "setting": "[4]", "result": 95, "unit": "%"}, {"measurement": "% Inhibition of Aflatoxin at 50 μM", "setting": "[5]", "result": 100, "unit": "%"}]}
{"smiles": "CC(CNC(=O)c1c(C(F)F)nn(C)c1Cl)c1cccc(C(F)(F)F)c1", "note": "(centres unmarked) [Example 125]", "values": [{"measurement": "% Inhibition of fungal growth at 50 μM", "setting": "[1]", "result": 78, "unit": "%"}, {"measurement": "logP", "setting": "[2]", "result": 3.35}, {"measurement": "Efficacy", "setting": "[3]", "result": 95, "unit": "%"}, {"measurement": "Efficacy", "setting": "[4]", "result": 100, "unit": "%"}, {"measurement": "% Inhibition of Aflatoxin at 50 μM", "setting": "[5]", "result": 99, "unit": "%"}]}
